A value given as a limit tells only on which side of the number the result lay.

One experiment deals with HBV. Nature of the experiment: Determination of HBV DNA from the supernatants of HepAD38 cells (anti-HBV activity). The experiment is classed as cell-based, hepatitis B virus. The following applies: Hepatitis B virus, 144 h; HBV DNA in HepAD38 supernatant at day 6; read-out: Cell Activity (EC50). Put shortly: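 EC50 values were obtained by non-linear regression of HBV DNA copy numbers measured by qPCR against pCH-9/3091 plasmid standards. The DNA came from filtered supernatants collected on day 6. Before that, tetracycline-withdrawn HepAD38 cells had been exposed to serial half-log compound dilutions, with tetracycline-treated cells as the non-producing control.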

A further experiment concerns the target HBV core protein (UniProt P03146). It is filed as biochemical. The following applies: read-out: Assembly Activity (IC50); BODIPY-FL labelled core protein, assembly started with NaCl, read after 6 min. The procedure, abridged: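 Compounds tested at 8 concentrations in 0.5-log steps from 100, 31.6 or 10 μM against 1.0–2.0 μM BODIPY-FL-labelled Cys150 core dimers (residues 1–149), 50 mM HEPES pH 7.5. NaCl ([…] final) triggered assembly; quenching read at 6 min, 477/525 nm, with 2.5 M and 0 M NaCl as controls; EC50 by nonlinear fit.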

Chain of HBV core protein (P03146 whole entry, looked up, the tested form may be a part): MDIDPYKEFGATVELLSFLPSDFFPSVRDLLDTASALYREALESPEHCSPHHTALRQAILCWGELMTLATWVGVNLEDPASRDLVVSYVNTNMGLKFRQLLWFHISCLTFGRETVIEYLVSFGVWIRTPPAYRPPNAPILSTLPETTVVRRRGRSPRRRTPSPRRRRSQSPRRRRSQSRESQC

As to `O=C(c1cc2ccccc2[nH]1)N1CCc2nc(OCc3ccccc3)sc2C1` [Example 158, 2-[2-(benzyloxy)-4H,5H,6H,7H-[1,3]thiazolo[5,4-c]pyridine-5-carbonyl]-1H-indole], in the experiment with HBV, the EC50 (as a rule, the concentration that produces a half-maximal response) fell in the range of 1 to 10 µM. For the same compound, the IC50 (as a rule, the concentration at which inhibition is half-maximal) on HBV core protein is below 100 µM.
Consider `O=C(c1cc2ccccc2[nH]1)N1CCc2nc(CNC3CC3)sc2C1` [Example 38, N-{[5-(1H-indole-2-carbonyl)-4H,5H,6H,7H-[1,3]thiazolo[5,4-c]pyridin-2-yl]methyl}cyclopropanamine], for which, in the experiment on HBV, the EC50 is below 1 µM. Further, the IC50 at HBV core protein is below 5 µM.
As for `CC(F)(F)c1cc(F)cc2[nH]c(C(=O)N3CCc4nc(NCC5(O)CCC5)sc4C3)cc12` [Example 371, 1-[({5-[4-(1,1-difluoroethyl)-6-fluoro-1H-indole-2-carbonyl]-4H,5H,6H,7H-[1,3]thiazolo[5,4-c]pyridin-2-yl}amino)methyl]cyclobutan-1-ol], the 50% effective concentration (EC50) in the experiment with HBV is below 1 µM. For the same compound, at HBV core protein, the IC50 was below 5 µM.
For `O=C(c1cc2cc(F)c(Cl)cc2[nH]1)N1CCc2nc(NCC3(CO)CC3)sc2C1` [Example 234, [1-({[5-(6-chloro-5-fluoro-1H-indole-2-carbonyl)-4H,5H,6H,7H-[1,3]thiazolo[5,4-c]pyridin-2-yl]amino}methyl)cyclopropyl]methanol], in that order: below 1 µM and below 5 µM.
Turning to `COCC(=O)Nc1nc2c(s1)CN(C(=O)c1cc3ccccc3[nH]1)CC2` [Example 3, N-[5-(1H-indole-2-carbonyl)-4H,5H,6H,7H-[1,3]thiazolo[5,4-c]pyridin-2-yl]-2-methoxyacetamide], the concentration for a half-maximal effect (EC50) with HBV is below 1 µM. In addition, the half-maximal inhibitory concentration (IC50) on HBV core protein is below 5 µM.
Consider `CC1CC1C(=O)Nc1nc2c(s1)CN(C(=O)c1cc3ccccc3[nH]1)CC2` (stereo not drawn) [Example 268, N-[5-(1H-indole-2-carbonyl)-4H,5H,6H,7H-[1,3]thiazolo[5,4-c]pyridin-2-yl]-2-methylcyclopropane-1-carboxamide], for which the EC50 with HBV is below 1 µM. For the same compound, on HBV core protein, the IC50 is 5 to 10 µM.
With `O=C(c1cc2ccccc2[nH]1)N1CCc2nc(CNCC3CCOC3)sc2C1` (stereo not drawn) [Example 1, {[5-(1H-indole-2-carbonyl)-4H,5H,6H,7H-[1,3]thiazolo[5,4-c]pyridin-2-yl]methyl}[(oxolan-3-yl)methyl]amine], the concentration giving a half-maximal response (EC50) with HBV lay within 1 to 10 µM. Further, the IC50 at HBV core protein is below 100 µM.
On the same counts, the results for `CC1c2sc(N)nc2CCN1C(=O)c1cc2ccccc2[nH]1` (stereo not drawn) [Example 109, 5-(1H-indole-2-carbonyl)-4-methyl-4H,5H,6H,7H-[1,3]thiazolo[5,4-c]pyridin-2-amine] are below 100 µM and below 100 µM.
Turning to `NCCNc1nc2c(s1)CN(C(=O)c1cc3ccccc3[nH]1)CC2` [Example 179, N1-[5-(1H-indole-2-carbonyl)-4H,5H,6H,7H-[1,3]thiazolo[5,4-c]pyridin-2-yl]ethane-1,2-diamine], the concentration giving a half-maximal response (EC50) in the experiment with HBV was 1 to 10 µM. For the same compound, at HBV core protein, the half-maximal inhibitory concentration (IC50) was 5 to 10 µM.
In the case of `Cc1nc2c(s1)CN(C(=O)c1cc3cccc(Cl)c3[nH]1)CC2` [Example 189, 7-chloro-2-{2-methyl-4H,5H,6H,7H-[1,3]thiazolo[5,4-c]pyridine-5-carbonyl}-1H-indole], the concentration for a half-maximal effect (EC50) in the experiment on HBV was 1 to 10 µM. Moreover, the IC50 at HBV core protein lay in the range of 5 to 10 µM.
For `O=C(c1cc2ccccc2[nH]1)N1CCc2nc(NC3CCC(O)CC3)sc2C1` (stereo not drawn) [Example 67, 4-{[5-(1H-indole-2-carbonyl)-4H,5H,6H,7H-[1,3]thiazolo[5,4-c]pyridin-2-yl]amino}cyclohexan-1-ol], in that order: below 1 µM and below 5 µM.
Turning to `CC1Cc2nc(N)sc2CN1C(=O)c1cc2ccccc2[nH]1` (stereo not drawn) [Example 107, 5-(1H-indole-2-carbonyl)-6-methyl-4H,5H,6H,7H-[1,3]thiazolo[5,4-c]pyridin-2-amine], the concentration for a half-maximal effect (EC50) in the experiment on HBV is below 1 µM. In addition, the concentration for half-maximal inhibition (IC50) on HBV core protein is below 5 µM.
On the same counts, the results for `O=C(c1cc2c(Cl)cccc2[nH]1)N1CCc2nc(NCC3(O)CCC3)sc2C1` [Example 311, 1-({[5-(4-chloro-1H-indole-2-carbonyl)-4H,5H,6H,7H-[1,3]thiazolo[5,4-c]pyridin-2-yl]amino}methyl)cyclobutan-1-ol] are below 1 µM and below 5 µM.
As to `O=C(c1cc2ccccc2[nH]1)N1CCc2nc(NC3(CO)CCC3)sc2C1` [Example 48, (1-{[5-(1H-indole-2-carbonyl)-4H,5H,6H,7H-[1,3]thiazolo[5,4-c]pyridin-2-yl]amino}cyclobutyl)methanol], the concentration giving a half-maximal response (EC50) in the experiment with HBV was below 1 µM. Moreover, the IC50 on HBV core protein is below 5 µM.
Regarding `CN(C)c1nc2c(s1)CN(C(=O)c1cc3ccccc3[nH]1)CC2` [Example 204, 5-(1H-indole-2-carbonyl)-N,N-dimethyl-4H,5H,6H,7H-[1,3]thiazolo[5,4-c]pyridin-2-amine], the concentration for a half-maximal effect (EC50) with HBV lay in the range of 1 to 10 µM. For the same compound, the half-inhibitory concentration (IC50) at HBV core protein is below 100 µM.
Take `CC(O)CNc1nc2c(s1)CN(C(=O)c1cc3c(F)ccc(F)c3[nH]1)CC2` (stereo not drawn) [Example 144, 1-{[5-(4,7-difluoro-1H-indole-2-carbonyl)-4H,5H,6H,7H-[1,3]thiazolo[5,4-c]pyridin-2-yl]amino}propan-2-ol]: the EC50 with HBV is below 1 µM. Further, the IC50 at HBV core protein is below 5 µM.
Take `CC(C)[C@H](N)C(=O)OCC1(CNc2nc3c(s2)CN(C(=O)c2cc4c(Cl)cc(F)cc4[nH]2)CC3)CC1` [Example 229, [1-({[5-(4-chloro-6-fluoro-1H-indole-2-carbonyl)-4H,5H,6H,7H-[1,3]thiazolo[5,4-c]pyridin-2-yl]amino}methyl)cyclopropyl]methyl (2S)-2-amino-3-methylbutanoate]: in the experiment with HBV, the 50% effective concentration (EC50) was below 1 µM. Besides, the 50% inhibitory concentration (IC50) on HBV core protein is below 5 µM.
Turning to `CS(=O)(=O)Nc1nc2c(s1)CN(C(=O)c1cc3ccccc3[nH]1)CC2` [Example 24, N-[5-(1H-indole-2-carbonyl)-4H,5H,6H,7H-[1,3]thiazolo[5,4-c]pyridin-2-yl]methanesulfonamide], in the experiment on HBV, the concentration for a half-maximal effect (EC50) lay in the range of 1 to 10 µM. Moreover, the IC50 on HBV core protein is below 100 µM.
For `Nc1nc2c(s1)CN(C(=O)c1cc3c(Br)ccc(F)c3[nH]1)CC2` [Example 90, 5-(4-bromo-7-fluoro-1H-indole-2-carbonyl)-4H,5H,6H,7H-[1,3]thiazolo[5,4-c]pyridin-2-amine], in that order: below 1 µM and below 5 µM.
On the same counts, the results for `Cc1cccc2[nH]c(C(=O)N3CCc4nc(NC5CCOC5)sc4C3)cc12` (stereo not drawn) [Example 76, 5-(4-methyl-1H-indole-2-carbonyl)-N-(oxolan-3-yl)-4H,5H,6H,7H-[1,3]thiazolo[5,4-c]pyridin-2-amine] are below 1 µM and below 5 µM.
Take `O=C(Nc1nc2c(s1)CN(C(=O)c1cc3ccccc3[nH]1)CC2)NS(=O)(=O)C1CC1` [Example 390, 3-(cyclopropanesulfonyl)-1-[5-(1H-indole-2-carbonyl)-4H,5H,6H,7H-[1,3]thiazolo[5,4-c]pyridin-2-yl]urea]: in the experiment with HBV, the concentration for a half-maximal effect (EC50) was below 100 µM. For the same compound, the concentration for half-maximal inhibition (IC50) at HBV core protein was below 5 µM.
Turning to `O=C(c1cc2ccc(Br)cc2[nH]1)N1CCc2nc(NCC3(O)CCC3)sc2C1` [Example 365, 1-({[5-(6-bromo-1H-indole-2-carbonyl)-4H,5H,6H,7H-[1,3]thiazolo[5,4-c]pyridin-2-yl]amino}methyl)cyclobutan-1-ol], the EC50 in the experiment with HBV is below 1 µM. Besides, the half-inhibitory concentration (IC50) at HBV core protein was below 5 µM.
For the compound `O=C(c1cc2ccccc2[nH]1)N1CCc2nc(NC3CCOCC3)sc2C1` [Example 206, 5-(1H-indole-2-carbonyl)-N-(oxan-4-yl)-4H,5H,6H,7H-[1,3]thiazolo[5,4-c]pyridin-2-amine], in the experiment on HBV, the EC50 was below 1 µM. In addition, the IC50 on HBV core protein was below 5 µM.
`CS(=O)(=O)CCNc1nc2c(s1)CN(C(=O)c1cc3ccccc3[nH]1)CC2` [Example 89, 5-(1H-indole-2-carbonyl)-N-(2-methanesulfonylethyl)-4H,5H,6H,7H-[1,3]thiazolo[5,4-c]pyridin-2-amine]: the concentration for a half-maximal effect (EC50) in the experiment on HBV was below 1 µM. On HBV core protein, the IC50 is below 5 µM.
For `O=C(c1cc2ccccc2[nH]1)N1CCc2ncsc2C1` [Example 200, 2-{4H,5H,6H,7H-[1,3]thiazolo[5,4-c]pyridine-5-carbonyl}-1H-indole], in the experiment with HBV, the EC50 fell in the range of 1 to 10 µM. The IC50 on HBV core protein was below 5 µM.
For `O=C(c1cc2ccccc2[nH]1)N1CCc2nc(NCCn3cccn3)sc2C1` [Example 285, 5-(1H-indole-2-carbonyl)-N-[2-(1H-pyrazol-1-yl)ethyl]-4H,5H,6H,7H-[1,3]thiazolo[5,4-c]pyridin-2-amine], in that order: below 1 µM and below 5 µM.
On the same counts, the results for `O=C(Nc1nc2c(s1)CN(C(=O)c1cc3c(Cl)cc(F)cc3[nH]1)CC2)C1CCOCC1` [Example 320, N-[5-(4-chloro-6-fluoro-1H-indole-2-carbonyl)-4H,5H,6H,7H-[1,3]thiazolo[5,4-c]pyridin-2-yl]oxane-4-carboxamide] are below 1 µM and 5 to 10 µM.
On to `Cc1nc2c(s1)CN(C(=O)c1cc3cc(F)cc(F)c3[nH]1)CC2` [Example 163], for which the EC50 in the experiment on HBV is below 1 µM. The half-inhibitory concentration (IC50) at HBV core protein was below 5 µM.
Take `Nc1nc2c(s1)CN(C(=O)c1cc3c(Cl)ccc(Cl)c3[nH]1)CC2` [Example 177, 5-(4,7-dichloro-1H-indole-2-carbonyl)-4H,5H,6H,7H-[1,3]thiazolo[5,4-c]pyridin-2-amine]: the EC50 in the experiment with HBV is below 100 µM. The concentration for half-maximal inhibition (IC50) at HBV core protein is below 100 µM.
For the compound `O=C(c1cc2c(Cl)c(F)ccc2[nH]1)N1CCc2nc(NCC3(O)CCC3)sc2C1` [Example 362, 1-({[5-(4-chloro-5-fluoro-1H-indole-2-carbonyl)-4H,5H,6H,7H-[1,3]thiazolo[5,4-c]pyridin-2-yl]amino}methyl)cyclobutan-1-ol], the 50% effective concentration (EC50) in the experiment with HBV is below 1 µM. In addition, the half-inhibitory concentration (IC50) at HBV core protein is below 5 µM.

The values are drawn from patent US11267825B2 (AICURIS GMBH & CO. KG, priority 2017, dated 2022).
